Source: article PMC5302413, “Bifunctional peptide-based opioid agonist/nociceptin antagonist ligand for dual treatment of nociceptive and neuropathic pain” (Pain, 2016)
Where “and” joins values, the source holds several entries; their conditions need not be identical. Equal entries are not always repeated. Structures can show the parent of a compound that is named as a salt. Numbered stars: 1 amine (or outer) side, 2 acyl side, 3 side chain; on linkers, the order of the positions; unused ones are H or OH. Square brackets hold non-standard residues; d marks the D form. Peptide text beside a SMILES is read from it. X1 = O=C1C(N[*:1])Cc2ccccc2CN1CCC(=O)[*:2]; Dmt = Cc1cc(O)cc(C)c1C[C@H](N)C(=O)O

Tests used:
Sprague-Dawley rats [1] = assay: Hot-plate test, thermal nociception in rats; assay type: in vivo, rat; conditions: IV, sigmoidal Emax model
Method: The individual rats were kept inside a transparent cylinder on the heated surface of the plate (52.0°C ± 0.2°C; Panlab).[27] Licking, brisk shaking of the hind paw, and jumping were considered as signs of thermal nociception. The cut-off time was set at 60 seconds. The first measurement was performed after a 10-minute period of accommodation while the animal was quiet. Drugs were intravenously (IV) administered at T0. Thermal nociception was recorded at −30, −15, −5, 5, 10, 15, 30, 45, 60, 90, 120, 180, 240, 300, 360, and 420 minutes (study 2A). […] The maximum possible effect (MPE%) was calculated based on the following equation: [drawing 2]
The pharmacological model was applied to the investigated drug effects using the maximum likelihood expectation maximization algorithm implemented in WinNonlin (Version 5.1; Pharsight, Princeton, NJ). A standard error variance model was defined as: [drawing 4] where yi is the ith predicted value from the pharmacological model. All model parameters were assumed to be log-normally distributed. Model selection was based on goodness-of-fit criteria, which included the convergence criterion (CV%), the Akaike information criterion, the estimation criterion value for the maximum likelihood method, and the visual inspection of predicted vs observed and residual plots. Estimated parameters for dose–effect relationships are expressed as mean (CV%).
Thermal nociception was measured during 420 minutes after the drug administration. Tmax was determined for each drug.
Thermal nociception was performed to assess the ED50 at the Tmax previously observed in study 2A.

Sprague-Dawley rats [2] = assay: Whole-body plethysmography, respiratory effects in rats; conditions: for Time after injection at which significant increase in TI started: IV 17.52 μmol/kg morphine, 17.62 μmol/kg tramadol, 0.34 μmol/kg KGNOP1 or KGOP1; for Inspiratory time E0 / Inspiratory time Emax / Effect on expiratory time (TE) versus baseline, time-course / Effect on minute volume (VM) versus baseline, time-course / Peak of respiratory effects (time) / TI, AUC method, in comparison to controls: IV; for Inspiratory time E0 / Inspiratory time Emax: rats, TI(Tmax) − TI(T0), sigmoidal Emax model, mean (CV%); for Effect on expiratory time (TE) versus baseline, time-course: KGNOP1 from 5 to 240 min, KGOP1 from 15 to 120 min; for Effect on minute volume (VM) versus baseline, time-course: morphine at 30 min, KGNOP1 from 5 to 45 min, KGOP1 at 15 min; for Peak of respiratory effects (time) / TI, AUC method, in comparison to controls: time-course study 3A
[3] = as above; conditions: Sprague-Dawley, rat, in vivo, iv; for ED50: rats, plethysmography at Tmax, sigmoidal Emax model, mean (CV%)
NOP receptor = target: NOP receptor; set-up: method as in PMID 27035422; conditions: mean ± SEM; read-out: Binding affinity (Ki) NOP receptor; cited from earlier work
[4] = cited from earlier work; for Blood–brain barrier transport mechanism: in vitro cell-based human model with BBB-PAMPA
[5] = system: SN-CCI Sprague-Dawley rats; assay: Cold-plate test, cold hyperalgesia in SN-CCI rats; assay type: in vivo, rat; conditions: for Persistence of effects on cold hyperalgesia after injection: IV 0.34 μmol/kg KGNOP1 or KGNOP3 (persisted up to), 17.62 μmol/kg tramadol (declined after), observation 420 min; for Cold hyperalgesia Tmax (time of peak effect): IV 0.34 μmol/kg KGNOP1 or KGNOP3, 17.62 μmol/kg tramadol
Method: We used the chronic constriction injury of the sciatic nerve (SN-CCI) model to induce neuropathic pain in rats.[4] The rat's right sciatic nerve was exposed under anesthesia using ketamine (70 mg/kg intraperitoneally [IP]) and xylazine (10 mg/kg IP). Subsequently, the nerve was ligated proximally to the sciatic trifurcation with four 4-0 chromic gut sutures (Ethicon, Issy-les-Moulineaux, France). Rats were then returned to their individual cages for a recovery period of 14 days, allowing complete anesthesia washout and neuropathic pain development.
The individual SN-CCI rats were kept inside a transparent cylinder on the cooled surface of the plate (4.0°C ± 0.2°C; Panlab, Barcelona, Spain).[15] The total leg lift counts of the right hind paw were counted for 5 minutes. Counts were excluded when the hind paw was lifted while walking. The first measurement was performed after a 10-minute period of accommodation while the animal was quiet. Drugs were intravenously (IV) administered at T0. […] The percentage of decrease in leg lift counts was calculated based on the following equation: [drawing 1]
Cold hyperalgesia was assessed during 420 minutes after the drug administration. Tmax was determined for each drug.

Sprague-Dawley rats [6] = assay: Benefit-to-respiratory toxicity ratio (ED50 ratio); conditions: from ED50 on cold hyperalgesia and ED50 on VM, SN-CCI rat, IV
δ-opioid receptor = target: δ-opioid receptor; set-up: method as in PMID 27035422; conditions: mean ± SEM; read-out: Binding affinity (Ki) δ-opioid receptor; cited from earlier work
[7] = system: guinea pig ileum (mu-opioid receptor); set-up: method as in PMID 27035422; conditions: mean ± SEM, read-out: Opioid activity (IC50) GPI; cited from earlier work
[8] = cited from earlier work
[9] = IV, SN-CCI rats, sigmoidal Emax model, mean (CV%)

CN1CC[C@]23c4c5ccc(O)c4O[C@H]2[C@@H](O)C=C[C@H]3[C@H]1C5 [Morphine, Morphine sulfate, reference compound]
Thermal nociception Emax (Sprague-Dawley rats [1]; MPE%, mean (CV%)): 100 (5.1) % | Thermal nociception E0 (baseline effect) (Sprague-Dawley rats [1]; * fixed value): 0* % | ED50 (Sprague-Dawley rats [1]; Rattus norvegicus, hot-plate test at Tmax, mean (CV%)): 14.7 µmol/kg | Time after injection at which significant increase in TI started (Sprague-Dawley rats [2]): 5 min | Effect on tidal volume (VT) versus baseline, time-course (Sprague-Dawley rats [2]; IV 17.52 μmol/kg, at 5, 90, 120, 180, 240, 300 and 360 min): reduction | Inspiratory time E0 (Sprague-Dawley rats [2]): 0.006 (11.5) s | Inspiratory time Emax (Sprague-Dawley rats [2]): 0.16 (5.9) s | Effect on expiratory time (TE) versus baseline, time-course (Sprague-Dawley rats [2]): did not exhibit significant effects | Effect on minute volume (VM) versus baseline, time-course (Sprague-Dawley rats [2]): decreased | ED50 ([3]; Inspiratory time (TI) ED50, IV): 12.2 µmol/kg | ED50 ([3]; Minute volume (VM) ED50, IV): 10.6 µmol/kg

CC[C@H](C)[C@H](NC(=O)[C@H](CCCNC(=N)N)NC(=O)[C@H](Cc1ccc(O)cc1)NC(=O)[C@H](Cc1ccc(O)cc1)NC(=O)[C@H](CCCNC(=N)N)NC(C)=O)C(=O)N[C@@H](CCCCN)C(N)=O [KGNOP3, Ac-Arg-Tyr-Tyr-Arg-Ile-Lys-NH2]
Ki (NOP receptor): […] | Blood–brain barrier transport mechanism [4]: transported by active mechanisms and not through passive diffusion | Persistence of effects on cold hyperalgesia after injection [5]: up to 420 min | Cold hyperalgesia Tmax (time of peak effect) ([5]; SN-CCI rats): 5 min | Cold hyperalgesia ED50 ([5]; IV, SN-CCI rats, cold-plate test at Tmax, sigmoidal Emax model, mean (CV%)): 0.32 μmol/kg and 0.29 (9) μmol/kg | Cold hyperalgesia E0 (baseline effect) [5, 9]: −20.1 (20.7) % | Cold hyperalgesia Emax [5, 9]: −76 (5.1) %

COc1cccc(C2(O)CCCCC2CN(C)C)c1 (stereo not drawn) [Tramadol, Tramadol hydrochloride, reference compound]
Benefit-to-respiratory toxicity ratio, neuropathic pain (ED50 ratio) (Sprague-Dawley rats [6]): 0.24 | Persistence of effects on cold hyperalgesia after injection [5]: 60 min | Cold hyperalgesia Tmax (time of peak effect) ([5]; SN-CCI rats): 5 min | Cold hyperalgesia E0 (baseline effect) [5, 9]: −26.4 (21.6) % | Cold hyperalgesia Emax [5, 9]: −92 (5.6) % | ED50 ([5]; Rattus norvegicus, IV, SN-CCI rats, cold-plate test at Tmax, sigmoidal Emax model, mean (CV%)): 12.1 µmol/kg | Time after injection at which significant increase in TI started (Sprague-Dawley rats [2]): 180 min | VM, AUC method, compared to controls (Sprague-Dawley rats [2]; IV 17.62 μmol/kg, P < 0.05): significantly decreased | Inspiratory time E0 (Sprague-Dawley rats [2]): 0.006 (14.7) s | Inspiratory time Emax (Sprague-Dawley rats [2]): 0.17 (34.6) s | Peak of respiratory effects (time) (Sprague-Dawley rats [2]): 30 min | TI, AUC method, in comparison to controls (Sprague-Dawley rats [2]): not | Effect on expiratory time (TE) versus baseline, time-course (Sprague-Dawley rats [2]): did not exhibit significant effects | Tmax [3]: 0.5 h | ED50 ([3]; Inspiratory time (TI) ED50, IV): 50.9 µmol/kg | ED50 ([3]; Minute volume (VM) ED50, IV): 50 µmol/kg

Cc1cc(O)cc(C)c1C[C@H](N)C(=O)N[C@H](CCCNC(=N)N)C(=O)NC1Cc2ccccc2CN(CCC(N)=O)C1=O (stereo partly drawn) [KGOP1, H-Dmt-D-Arg-Aba-βAla-NH2]
Blood–brain barrier transport mechanism [4]: transported by active mechanisms and not through passive diffusion | Ki (δ-opioid receptor): 17 ± 0.3 nM | Inspiratory time E0 (Sprague-Dawley rats [2]): 0.029 (9.7) s | Inspiratory time Emax (Sprague-Dawley rats [2]): 0.15 (15.1) s | Peak of respiratory effects (time) (Sprague-Dawley rats [2]): 240 min | TI, AUC method, in comparison to controls (Sprague-Dawley rats [2]): not | Effect on expiratory time (TE) versus baseline, time-course (Sprague-Dawley rats [2]): significantly decreased | Effect on minute volume (VM) versus baseline, time-course (Sprague-Dawley rats [2]): increased | Tmax ([3]; 0.34 μmol/kg): 4 h | ED50 ([3]; Inspiratory time (TI) ED50, IV): 0.52 µmol/kg | ED50 ([3]; Minute volume (VM) ED50, IV): 0.66 µmol/kg | IC50 [7]: 0.8 ± 0.1 nM

CC[C@H](C)[C@H](NC(=O)[C@H](CCCNC(=N)N)NC(=O)[C@H](Cc1ccc(O)cc1)NC(=O)[C@H](Cc1ccc(O)cc1)NC(=O)[C@H](CCCNC(=N)N)NC(=O)CCN1Cc2ccccc2CC(NC(=O)[C@@H](CCCNC(=N)N)NC(=O)[C@@H](N)Cc2c(C)cc(O)cc2C)C1=O)C(=O)N[C@@H](CCCCN)C(N)=O (stereo partly drawn) [KGNOP1, H-Dmt-D-Arg-Aba-βAla-Arg-Tyr-Tyr-Arg-Ile-Lys-NH2] (H-[Dmt][dR][X1]RYYRIK-NH2)
Stability against enzymatic degradation [8]: has stability against enzymatic degradation | Blood–brain barrier penetration [4]: able to penetrate the blood–brain barrier | Blood–brain barrier transport mechanism [4]: transported by active mechanisms and not through passive diffusion | VT, AUC method, in comparison to morphine-treated rats (Sprague-Dawley rats [2]; IV 0.34 μmol/kg, P < 0.05): significantly decreased | TE, AUC method, in comparison to morphine- and tramadol-treated rats (Sprague-Dawley rats [2]; IV 0.34 μmol/kg, P < 0.05 and P < 0.01): significantly decreased | Inspiratory time E0 (Sprague-Dawley rats [2]): 0.06 (13.1) s | Inspiratory time Emax (Sprague-Dawley rats [2]): 0.16 (16.1) s | Peak of respiratory effects (time) (Sprague-Dawley rats [2]): 180 min | TI, AUC method, in comparison to controls (Sprague-Dawley rats [2]): not | Effect on expiratory time (TE) versus baseline, time-course (Sprague-Dawley rats [2]): significantly decreased | Effect on minute volume (VM) versus baseline, time-course (Sprague-Dawley rats [2]): increased | Tmax ([3]; 0.34 μmol/kg): 3 h | ED50 ([3]; Inspiratory time (TI) ED50, IV): 0.63 µmol/kg | ED50 ([3]; Minute volume (VM) ED50, IV): 0.57 µmol/kg
